This note sets out measurements from article PMC11002876, “KcsA-Kv1.x chimeras with complete ligand-binding sites provide improved predictivity for screening selective Kv1.x blockers” (The Journal of Biological Chemistry, 2024).

Broadly, the IC50 is the concentration at which inhibition is half-maximal.

Where a SMILES comes first, the peptide text is derived from it.

The experiment concerns the target T1, KcsA-Kv1.3 T-only chimera (Streptomyces lividans, UniProt P0A334, A54D/A57S/G53D/G56T/I60S/L59F/Q58G/R52A/R64D/T61S/Y62I).
T1 construct: made in house; host or cells: E. coli XL1-Blue (pQE30)
T1 sequence (P0A334 1-160 R52A/G53D/A54D/G56T/A57S/Q58G/L59F/I60S/T61S/Y62I/R64D): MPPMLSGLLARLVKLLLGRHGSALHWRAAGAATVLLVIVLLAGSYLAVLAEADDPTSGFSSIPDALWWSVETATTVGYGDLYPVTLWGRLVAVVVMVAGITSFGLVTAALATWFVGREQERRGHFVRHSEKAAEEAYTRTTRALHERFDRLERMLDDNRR
The experiment is described as follows: Phage-binding competition assay, KcsA-Kv1.3 T-only. Further details: species or system human Kv1.3 turret in Streptomyces lividans KcsA. To be noted: for IC50: HgTx1-phage competition, T-only KcsA-Kv1.3, value given in figure, sigmoidal fit to means of three replicates, read-out: IC50 (Fig. 6E); for Rank, T-only chimera (Kv1.3): rank by competition IC50 among Vm24, HgTx1, KTX1. As for the experimental part: Phage stock solutions were diluted to working concentration with phage resuspension buffer supplemented with 2 mM DDM. For protein immobilization, the following amounts were used in a final volume of 50 μl/well: wt KcsA, 0.1 μg; KcsA-Kv1.1 T-only, 0.005 μg; KcsA-Kv1.1 T+F, 0.02 μg; KcsA-Kv1.2 T-only, 0.01 μg; KcsA-Kv1.2 T+F, 0.1 μg; KcsA-Kv1.3 T-only, 0.01 μg; and KcsA-Kv1.3 T+F, 0.1 μg. Protein samples were diluted in 50 μl of storage buffer (20 mM Tris pH8.0, 300 mM KCl, 2 mM DDM) and were added to the designated wells of a Pierce Clear, 96-Well Nickel Coated Plate (15442, Thermo Fisher Scientific), then incubated for 1 h at room temperature on a horizontal shaker at 130 rpm. The plate was blocked for 1 h at room temperature with 180 μl/well TBS-BSA supplemented with 1 mM DDM. Following blocking, the wells were washed 4× with washing buffer (300 μl TBS-Tween, 0.1% v/v) using a Wellwash Versa microplate washer (Thermo Fisher Scientific); then 50 μl phage solution (in TBS-BSA-Tween, 0.1% v/v, 2 mM DDM) at determined phage concentration was added to the wells and incubated for 1 h at room temperature on a horizontal shaker. The plate was washed 4× with washing buffer, then 50 μl anti-M13 IgG HRP (MA5-36125, Invitrogen) diluted to 1:2500 in TBS-Tween (0.1% v/v) was added to the wells and incubated for 1 h at room temperature. The plate was washed again 4× with 300 μl/well washing buffer. Finally, 50 μl/well 1-Step Ultra TMB-ELISA solution (34028, Thermo Fisher Scientific) was added to the wells, and the developing signal was stopped with 50 μl 1M HCl after 5 to 10 min. The light absorbance signal was read at 450 nm with Byonoy absorbance 96 plate reader (Byonoy GmbH).
For protein immobilization, the following amounts were used in a final volume of 50 μl/well: KcsA-Kv1.1 T-only, 0.005 μg; KcsA-Kv1.1 T+F, 0.01 μg; KcsA-Kv1.2 T-only, 0.025 μg; KcsA-Kv1.2 T+F, 0.0125 μg; KcsA-Kv1.3 T-only, 0.01 μg; and KcsA-Kv1.3 T+F, 0.1 μg. Protein samples were diluted in storage buffer. Binding of given concentrations of relevant ligand-displaying phages quantified by light absorbance ([…]) were investigated in a similar manner as in phage ELISA-binding assay, while different concentrations of competing toxin test substances were applied simultaneously. The results were converted to percent inhibitions (percent displacement) of the indicator phage binding, and relative affinities of the tested toxins were assessed by plotting percent displacements against log concentrations and determining half maximal inhibitory concentrations (IC50) by sigmoidal curve fitting using “Sigmoidal dose-response (variable slope) with least squares method” algorithm in GraphPad Prism 8 using the following equation: Y=Bottom+Top−Bottom/1+10^(LogEC50−×)⋅HillSlope

With `CC[C@H](C)[C@@H]1NC(=O)CNC(=O)[C@H](Cc2ccccc2)NC(=O)[C@H](CCC(N)=O)NC(=O)[C@H](C)NC(=O)[C@H](CCCCN)NC(=O)[C@@H]2CSSC[C@@H](C(=O)N[C@@H](Cc3ccc(O)cc3)C(=O)N3CCC[C@H]3C(=O)N[C@@H](Cc3c[nH]cn3)C(=O)O)NC(=O)[C@H](CCCCN)NC(=O)[C@@H]3CSSC[C@H](NC(=O)[C@H](CCC(N)=O)NC(=O)[C@H](CCCCN)NC(=O)[C@@H]4CCCN4C(=O)[C@H](CO)NC(=O)[C@H]([C@@H](C)O)NC(=O)[C@@H](NC(=O)[C@H](CCCCN)NC(=O)[C@@H](NC(=O)[C@H](CC(=O)O)NC(=O)[C@@H](NC(=O)[C@@H](NC(=O)[C@@H](N)[C@@H](C)O)C(C)C)[C@@H](C)CC)C(C)C)CSSC[C@H](NC(=O)[C@H](CCCCN)NC(=O)[C@H](C)NC(=O)CNC(=O)[C@H](C)NC(=O)[C@H](CCCNC(=N)N)NC1=O)C(=O)N[C@@H](CCSC)C(=O)N[C@@H](CC(N)=O)C(=O)NCC(=O)N[C@@H](CCCCN)C(=O)N3)C(=O)N[C@@H](CC(C)C)C(=O)N1CCC[C@H]1C(=O)N1CCC[C@H]1C(=O)N2` [HgTx1, Hongotoxin-1] (HELM PEPTIDE1{T.V.I.D.V.K.C.T.S.P.K.Q.C.L.P.P.C.K.A.Q.F.G.I.R.A.G.A.K.C.M.N.G.K.C.K.C.Y.P.H}$PEPTIDE1,PEPTIDE1,7:R3-29:R3|PEPTIDE1,PEPTIDE1,13:R3-34:R3|PEPTIDE1,PEPTIDE1,17:R3-36:R3$$$V2.0; N-terminus and C-terminus assumed), the IC50 stood at 0.671 nM and the “Rank, T-only chimera (Kv1.3)” value is listed as 3.
In the case of `CC[C@H](C)[C@H](NC(=O)[C@H](CCC(=O)O)NC(=O)[C@@H](NC(=O)CN)C(C)C)C(=O)N[C@@H](CC(N)=O)C(=O)N[C@H](C(=O)N[C@@H](CCCCN)C(=O)N[C@H]1CSSC[C@@H]2NC(=O)[C@H](CCCCN)NC(=O)CNC(=O)[C@H](Cc3ccccc3)NC(=O)[C@H](CCCNC(=N)N)NC(=O)[C@H](CCSC)NC(=O)CNC(=O)[C@H](C)NC(=O)[C@H](CC(=O)O)NC(=O)[C@H](CCCCN)NC(=O)[C@@H]3CSSC[C@@H](C(=O)N[C@H](C(=O)N4CCC[C@H]4C(=O)N[C@@H](CCCCN)C(=O)O)[C@@H](C)O)NC(=O)[C@H](Cc4c[nH]cn4)NC(=O)[C@H](CSSC[C@H](NC(=O)[C@H](CCC(N)=O)NC(=O)[C@@H]4CCCN4C(=O)[C@H](CO)NC(=O)CNC(=O)[C@H](CO)NC1=O)C(=O)N[C@@H](CC(C)C)C(=O)N[C@@H](CCCCN)C(=O)N1CCC[C@H]1C(=O)N3)NC(=O)[C@H](CCCCN)NC(=O)[C@H](CCCNC(=N)N)NC(=O)[C@H](CC(N)=O)NC(=O)[C@H](CCSC)NC2=O)C(C)C` [KTX1, Kaliotoxin-1], the IC50 is 0.416 nM and the “Rank, T-only chimera (Kv1.3)” value is 1.
As to `CC[C@H](C)[C@H](NC(=O)[C@H](C)NC(=O)[C@H](C)NC(=O)[C@H](C)N)C(=O)N[C@@H](CO)C(=O)N[C@H]1CSSC[C@@H]2NC(=O)[C@H](CCCCN)NC(=O)CNC(=O)[C@H](CC(N)=O)NC(=O)[C@H](CCCCN)NC(=O)[C@@H]3CSSC[C@@H](C(N)=O)NC(=O)[C@H](Cc4ccc(O)cc4)NC(=O)[C@H](Cc4ccc(O)cc4)NC(=O)[C@@H]4CSSC[C@H](NC(=O)[C@H](CCCCN)NC(=O)[C@@H]5CCCN5C(=O)[C@@H]5CCCN5C(=O)[C@H](CSSC[C@H](NC(=O)[C@H](CCCCN)NC(=O)[C@H](CCCNC(=N)N)NC(=O)[C@H](CC(N)=O)NC(=O)[C@H](CCSC)NC2=O)C(=O)N[C@@H](CCCCN)C(=O)N4)NC(=O)[C@H](CCC(=O)O)NC(=O)[C@@H]2CCCN2C(=O)[C@H](CO)NC(=O)CNC(=O)[C@H](C(C)C)NC1=O)C(=O)N[C@@H](CCCNC(=N)N)C(=O)N[C@@H](C)C(=O)N[C@@H](CCC(N)=O)C(=O)NCC(=O)N3` [Vm24, Vm24 toxin], the IC50 came out at 0.603 nM and the “Rank, T-only chimera (Kv1.3)” value turned out to be 2.
